Assay results from PMC8330742, “New benzothieno[2,3-c]pyridines as non-steroidal CYP17 inhibitors: design, synthesis, anticancer screening, apoptosis induction, and in silico ADME profile studies” (Journal of Enzyme Inhibition and Medicinal Chemistry, 2021).

Assays:
[1] = tested on: panel of 60 cancer cell lines; assay: NCI-60 SRB screen, mean or range over the panel; type: cell-based, human; conditions: Homo sapiens; mean over the cell lines; single dose 10^−5 M; read-out: Mean growth inhibition (%)
NCI-H522 = assay: NCI-60 SRB screen; type: cell-based, human; conditions: Homo sapiens; single dose 10^−5 M; NCI-H522, Non-small cell lung carcinoma; read-out: Growth inhibition (%)
NCI-H322M = assay: NCI-60 SRB screen; type: cell-based, human; conditions: Homo sapiens, single dose 10^−5 M, Non-small cell lung carcinoma, read-out: Growth inhibition (%)
K-562 = assay: NCI-60 SRB screen; type: cell-based, human; conditions: Homo sapiens, K562; single dose 10^−5 M; K-562, Leukaemia; read-out: Growth inhibition (%)
EKVX = assay: NCI-60 SRB screen; type: cell-based, human; conditions: Homo sapiens, single dose 10^−5 M, Non-small cell lung carcinoma, read-out: Growth inhibition (%)
OVCAR-8 = assay: NCI-60 SRB screen; type: cell-based, human; conditions: Homo sapiens; single dose 10^−5 M; OVCAR-8, Ovarian cancer; read-out: Growth inhibition (%)
HCT-116 = assay: NCI-60 SRB screen; type: cell-based, human; conditions: Homo sapiens; single dose 10^−5 M; HCT-116, Colon cancer; read-out: Growth inhibition (%)
CCRF-CEM = assay: NCI-60 SRB screen; type: cell-based; conditions: Homo sapiens, single dose 10^−5 M, Leukaemia, read-out: Growth inhibition (%)
OVCAR-4 = assay: NCI-60 SRB screen; type: cell-based, human; conditions: Homo sapiens; single dose 10^−5 M; OVCAR-4, Ovarian cancer; read-out: Growth inhibition (%)
TK-10 = assay: NCI-60 SRB screen; type: cell-based, human; conditions: Homo sapiens; single dose 10^−5 M; TK-10, Renal cancer; read-out: Growth inhibition (%)
SN12C = assay: NCI-60 SRB screen; type: cell-based, human; conditions: Homo sapiens, SN12C; single dose 10^−5 M; SN 12 C, Renal cancer; read-out: Growth inhibition (%)
HL-60(TB) = assay: NCI-60 SRB screen; type: cell-based, human; conditions: Homo sapiens; single dose 10^−5 M; HL-60(TB), Leukaemia; read-out: Growth inhibition (%)
HOP-62 = assay: NCI-60 SRB screen; type: cell-based, human; conditions: Homo sapiens; single dose 10^−5 M; HOP-62, Non-small cell lung carcinoma; read-out: Growth inhibition (%)
SK-MEL-5 = assay: NCI-60 SRB screen; type: cell-based, human; conditions: Homo sapiens; single dose 10^−5 M; SK-MEL-5, Melanoma; read-out: Growth inhibition (%)
HCT-15 = assay: NCI-60 SRB screen; type: cell-based, human; conditions: Homo sapiens; single dose 10^−5 M; HCT-15, Colon cancer; read-out: Growth inhibition (%)
CAKI-1 = assay: NCI-60 SRB screen; type: cell-based, human; conditions: Homo sapiens; single dose 10^−5 M; CAKI-1, Renal cancer; read-out: Growth inhibition (%)
NCI-H226 = assay: NCI-60 SRB screen; type: cell-based, human; conditions: Homo sapiens; single dose 10^−5 M; NCI-H226, Non-small cell lung carcinoma; read-out: Growth inhibition (%)
NCI/ADR-RES = assay: NCI-60 SRB screen; type: cell-based, human; conditions: Homo sapiens, single dose 10^−5 M, Ovarian cancer, read-out: Growth inhibition (%)
SK-MEL-2 = assay: NCI-60 SRB screen; type: cell-based, human; conditions: Homo sapiens; single dose 10^−5 M; SK-MEL-2, Melanoma; read-out: Growth inhibition (%)
HCC-2998 = assay: NCI-60 SRB screen; type: cell-based, human; conditions: Homo sapiens; single dose 10^−5 M; HCC-2998, Colon cancer; read-out: Growth inhibition (%)
HOP-92 = assay: NCI-60 SRB screen; type: cell-based, human; conditions: Homo sapiens; single dose 10^−5 M; HOP-92, Non-small cell lung carcinoma; read-out: Growth inhibition (%)
LOX IMVI = assay: NCI-60 SRB screen; type: cell-based, human; conditions: Homo sapiens, single dose 10^−5 M, Melanoma, read-out: Growth inhibition (%)
M14 = assay: NCI-60 SRB screen; type: cell-based, human; conditions: Homo sapiens; single dose 10^−5 M; M14, Melanoma; read-out: Growth inhibition (%)
IGROV1 = assay: NCI-60 SRB screen; type: cell-based, human; conditions: Homo sapiens, IGROV-1; single dose 10^−5 M; IGROV1, Ovarian cancer; read-out: Growth inhibition (%)
786-0 = assay: NCI-60 SRB screen; type: cell-based; conditions: Homo sapiens; single dose 10^−5 M; 786-0, Renal cancer; read-out: Growth inhibition (%)
NCI-H460 = assay: NCI-60 SRB screen; type: cell-based, human; conditions: Homo sapiens; single dose 10^−5 M; NCI-H460, Non-small cell lung carcinoma; read-out: Growth inhibition (%)
SK-MEL-28 = assay: NCI-60 SRB screen; type: cell-based; conditions: Homo sapiens; single dose 10^−5 M; SK-MEL-28, Melanoma; read-out: Growth inhibition (%)
SR = assay: NCI-60 SRB screen; type: cell-based; conditions: Homo sapiens, single dose 10^−5 M, Leukaemia, read-out: Growth inhibition (%)
UO-31 = assay: NCI-60 SRB screen; type: cell-based, human; conditions: Homo sapiens; single dose 10^−5 M; UO-31, Renal cancer; read-out: Growth inhibition (%)
SF-268 = assay: NCI-60 SRB screen; type: cell-based, human; conditions: Homo sapiens; single dose 10^−5 M; SF-268, CNS cancer; read-out: Growth inhibition (%)
RXF 393 = assay: NCI-60 SRB screen; type: cell-based, human; conditions: Homo sapiens; single dose 10^−5 M; RXF 393, Renal cancer; read-out: Growth inhibition (%)
UACC-257 = assay: NCI-60 SRB screen; type: cell-based, human; conditions: Homo sapiens; single dose 10^−5 M; UACC-257, Melanoma; read-out: Growth inhibition (%)
SW-620 = assay: NCI-60 SRB screen; type: cell-based; conditions: Homo sapiens; single dose 10^−5 M; SW-620, Colon cancer; read-out: Growth inhibition (%)
A549/ATCC = assay: NCI-60 SRB screen; type: cell-based, human; conditions: Homo sapiens, single dose 10^−5 M, Non-small cell lung carcinoma, read-out: Growth inhibition (%)
COLO 205 = assay: NCI-60 SRB screen; type: cell-based, human; conditions: Homo sapiens; single dose 10^−5 M; COLO 205, Colon cancer; read-out: Growth inhibition (%)
UACC-62 = assay: NCI-60 SRB screen; type: cell-based, human; conditions: Homo sapiens; single dose 10^−5 M; UACC-62, Melanoma; read-out: Growth inhibition (%)
SK-OV-3 = assay: NCI-60 SRB screen; type: cell-based, human; conditions: Homo sapiens; single dose 10^−5 M; SK-OV-3, Ovarian cancer; read-out: Growth inhibition (%)
ACHN = assay: NCI-60 SRB screen; type: cell-based; conditions: Homo sapiens, single dose 10^−5 M, Renal cancer, read-out: Growth inhibition (%)
NCI-H23 = assay: NCI-60 SRB screen; type: cell-based, human; conditions: Homo sapiens; single dose 10^−5 M; NCI-H23, Non-small cell lung carcinoma; read-out: Growth inhibition (%)
KM12 = assay: NCI-60 SRB screen; type: cell-based, human; conditions: Homo sapiens; single dose 10^−5 M; KM12, Colon cancer; read-out: Growth inhibition (%)
MOLT-4 = assay: NCI-60 SRB screen; type: cell-based; conditions: Homo sapiens; single dose 10^−5 M; MOLT-4, Leukaemia; read-out: Growth inhibition (%)
MDA-MB-435 = assay: NCI-60 SRB screen; type: cell-based; conditions: Homo sapiens, MDA-MB-435, read-out: Growth inhibition (%)
SF-295 = assay: NCI-60 SRB screen; type: cell-based, human; conditions: Homo sapiens; single dose 10^−5 M; SF-295, CNS cancer; read-out: Growth inhibition (%)
OVCAR-3 = assay: NCI-60 SRB screen; type: cell-based, human; conditions: Homo sapiens; single dose 10^−5 M; OVCAR-3, Ovarian cancer; read-out: Growth inhibition (%)

N#CC1=C(N2CCCCC2)NC(c2cccc([N+](=O)[O-])c2)c2sc3c(F)cccc3c21 (centres unmarked) [Compound 8f, 4-Cyano-3-(piperidin-1-yl)-8-fluoro-1-(3-nitrophenyl)-1,2-dihydro [1]benzothieno[2,3-c]pyridine]
inhibition at 10 µM [1]: 0.008%
inhibition at 10 µM (NCI-H522): 9.54%
inhibition at 10 µM (NCI-H322M): -5.64%
inhibition at 10 µM (K-562): 23.1%
inhibition at 10 µM (EKVX): 5.51%
inhibition at 10 µM (OVCAR-8): -0.33%
inhibition at 10 µM (HCT-116): 4.5%
inhibition at 10 µM (CCRF-CEM): 3.32%
inhibition at 10 µM (OVCAR-4): 0.9%
inhibition at 10 µM (TK-10): -53.1%
inhibition at 10 µM (SN12C): 3.7%
inhibition at 10 µM (HL-60(TB)): -3.35%
inhibition at 10 µM (HOP-62): 10.2%
inhibition at 10 µM (SK-MEL-5): -14.8%
inhibition at 10 µM (HCT-15): -4.78%
inhibition at 10 µM (CAKI-1): 28.7%
inhibition at 10 µM (NCI-H226): 15.7%
inhibition at 10 µM (NCI/ADR-RES): -1.61%
inhibition at 10 µM (SK-MEL-2): 2.71%
inhibition at 10 µM (HCC-2998): -23.2%
inhibition at 10 µM (HOP-92): 4.9%
inhibition at 10 µM (LOX IMVI): 2.61%
inhibition at 10 µM (M14): 0.58%
inhibition at 10 µM (IGROV1): 14.9%
inhibition at 10 µM (786-0): -12.1%
inhibition at 10 µM (NCI-H460): 2.2%
inhibition at 10 µM (SK-MEL-28): -10.7%
inhibition at 10 µM (SR): 11.1%
inhibition at 10 µM (UO-31): 33.3%
inhibition at 10 µM (SF-268): 9.44%
inhibition at 10 µM (RXF 393): -6.31%
inhibition at 10 µM (UACC-257): -12.7%
inhibition at 10 µM (SW-620): 4.11%
inhibition at 10 µM (A549/ATCC): -2.65%
inhibition at 10 µM (COLO 205): -16.7%
inhibition at 10 µM (UACC-62): 15.5%
inhibition at 10 µM (SK-OV-3): 7.22%
inhibition at 10 µM (ACHN): 14.3%
inhibition at 10 µM (NCI-H23): 4.09%
inhibition at 10 µM (KM12): 5.13%
inhibition at 10 µM (MOLT-4): 5.31%
inhibition at 10 µM (MDA-MB-435): -6.93%
inhibition at 10 µM (SF-295): -9.62%
inhibition at 10 µM (OVCAR-3): 0.09%
